Data from BindingDB's records for doi:10.1124/jpet.104.075069 (Targacept, 2005).

Assays:
[1] = target: Neuronal acetylcholine receptor subunit alpha-4 (Rattus norvegicus, UniProt P09483)
[2] = target: Neuronal acetylcholine receptor subunit alpha-7 (Rattus norvegicus, UniProt Q05941)
Chain of Neuronal acetylcholine receptor subunit alpha-7 (Q05941 whole entry): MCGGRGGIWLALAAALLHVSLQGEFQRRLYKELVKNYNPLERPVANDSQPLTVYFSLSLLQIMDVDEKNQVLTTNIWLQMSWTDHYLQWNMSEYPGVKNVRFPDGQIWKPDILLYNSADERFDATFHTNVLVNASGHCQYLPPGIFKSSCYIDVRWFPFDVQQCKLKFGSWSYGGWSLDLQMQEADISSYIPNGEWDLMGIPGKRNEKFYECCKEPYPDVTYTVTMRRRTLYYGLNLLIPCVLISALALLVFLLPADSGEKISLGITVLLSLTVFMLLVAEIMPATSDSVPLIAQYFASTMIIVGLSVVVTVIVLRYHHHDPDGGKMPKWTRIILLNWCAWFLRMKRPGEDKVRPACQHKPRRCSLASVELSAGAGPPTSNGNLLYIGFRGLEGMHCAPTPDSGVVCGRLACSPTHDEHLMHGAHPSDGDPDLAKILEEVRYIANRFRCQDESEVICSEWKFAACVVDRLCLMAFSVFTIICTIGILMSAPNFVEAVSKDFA

Chain of Neuronal acetylcholine receptor subunit alpha-4 (P09483 whole entry): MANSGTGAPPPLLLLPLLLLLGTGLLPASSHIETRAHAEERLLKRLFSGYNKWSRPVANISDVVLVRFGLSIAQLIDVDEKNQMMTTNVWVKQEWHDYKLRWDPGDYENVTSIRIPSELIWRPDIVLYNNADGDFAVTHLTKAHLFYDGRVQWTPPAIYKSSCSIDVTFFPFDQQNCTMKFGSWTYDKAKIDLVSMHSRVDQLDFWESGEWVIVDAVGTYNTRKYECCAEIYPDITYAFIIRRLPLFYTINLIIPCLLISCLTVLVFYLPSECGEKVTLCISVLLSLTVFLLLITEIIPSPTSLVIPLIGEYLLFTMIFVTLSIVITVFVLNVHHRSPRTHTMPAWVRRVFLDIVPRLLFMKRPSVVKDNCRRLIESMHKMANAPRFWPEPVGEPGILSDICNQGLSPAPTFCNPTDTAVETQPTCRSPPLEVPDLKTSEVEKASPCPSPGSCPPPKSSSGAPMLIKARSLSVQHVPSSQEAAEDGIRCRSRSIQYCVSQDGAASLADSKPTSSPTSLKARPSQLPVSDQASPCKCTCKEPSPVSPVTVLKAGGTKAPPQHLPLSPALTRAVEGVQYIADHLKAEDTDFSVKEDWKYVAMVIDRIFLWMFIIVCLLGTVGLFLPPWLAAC

SMILES	Ki [1] [nM]	Ki [2] [nM]
C[N+](C)(C)CCOC(N)=O [(2-Hydroxyethyl)trimethyl ammonium chloride carbamate]	66.4	9920
c1cncc(OCC2CCN2)c1 (stereo not drawn) [A-85380]	–	54.9
Cc1cc(C2CCCN2C)on1 (stereo not drawn) [ABT-418]	4.69	1970
O=c1cccc2n1CC1CNCC2C1 (stereo not drawn) [CAS_485-35-8]	0.2	1140
CNC(=O)OCC[N+](C)(C)C [CAS_14721-69-8]	2.51	4350
CCN1CC2(COC(=O)c3ccccc3-n3c(O)cc(C)c3O)CCC(OC)C34C5CC6C(OC)CC(O)(C5C6OC)C(O)(C(OC)C23)C14 (stereo not drawn) [CAS_21019-30-7]	585	–
COc1ccc(C=C2CCCN=C2c2cccnc2)c(OC)c1 [CAS_156223-05-1]	278	596
COC1CC=C2CCN3CCC4=C(CC(=O)OC4)C23C1 (stereo not drawn) [NSC_31762]	24.6	7700
C#Cc1cncc(C2CCCN2C)c1 (stereo not drawn) [NSC_6442277]	0.5	14400
c1cncc(C2CC3CCN2CC3)c1 (stereo not drawn) [TC-2429]	1	12.4
